Laboratory results published in ChEMBL document CHEMBL3860105, “Sulfonamide-Based Inhibitors of Aminoglycoside Acetyltransferase Eis Abolish Resistance to Kanamycin in Mycobacterium tuberculosis” (J Med Chem, 2016).

Key:
[1] = tested on: Mycobacterium tuberculosis H37Rv; conditions: 8 uM
[2] = tested on: Mycobacterium tuberculosis; experiment: (§1) Inhibition of Mycobacterium tuberculosis K204 acetyltransferase Eis assessed as potentiation of kanamycin A-induced antimicrobial activity by measuring kanamycin A MIC level at 8 uM pre-incubated for 24 hrs before kanamycin A addition followed by incubation for 6 days by alamar blue assay (Rvb kanamycin A alone MIC = 10 ug/ml)
[3] = tested on: Mycobacterium tuberculosis; experiment: Antimicrobial activity against Mycobacterium tuberculosis H37Rv at 8 uM incubation for 6 days by alamar blue assay; assay type: ADME; conditions: 144 h
[4] = tested on: Mycobacterium tuberculosis; experiment: Antimicrobial activity against Mycobacterium tuberculosis K204 at 8 uM incubation for 6 days by alamar blue assay; assay type: ADME; conditions: 144 h
[5] = tested on: Mycobacterium tuberculosis H37Rv; conditions: 10 uM
[6] = tested on: Mycobacterium tuberculosis; experiment: as §1, with “10” for “8”
[7] = tested on: Mycobacterium tuberculosis; experiment: Antimicrobial activity against Mycobacterium tuberculosis K204 at 10 uM incubation for 6 days by alamar blue assay; assay type: ADME; conditions: 144 h
[8] = tested on: Mycobacterium tuberculosis; experiment: Antimicrobial activity against Mycobacterium tuberculosis H37Rv at 10 uM incubation for 6 days by alamar blue assay; assay type: ADME; conditions: 144 h
[9] = tested on: Mycobacterium tuberculosis H37Rv; conditions: 100 uM
[10] = tested on: Mycobacterium tuberculosis; experiment: Antimicrobial activity against Mycobacterium tuberculosis H37Rv at 100 uM incubation for 6 days by alamar blue assay; assay type: ADME; conditions: 144 h
[11] = tested on: Mycobacterium tuberculosis; experiment: as §1, with “100” for “8”
[12] = tested on: Mycobacterium tuberculosis; experiment: Antimicrobial activity against Mycobacterium tuberculosis K204 at 100 uM incubation for 6 days by alamar blue assay; assay type: ADME; conditions: 144 h
[13] = tested on: Mycobacterium tuberculosis; experiment: as §1, with “30” for “8”
[14] = tested on: Mycobacterium tuberculosis H37Rv; conditions: 30 uM
[15] = tested on: Mycobacterium tuberculosis; experiment: Antimicrobial activity against Mycobacterium tuberculosis K204 at 30 uM incubation for 6 days by alamar blue assay; assay type: ADME; conditions: 144 h
[16] = tested on: Mycobacterium tuberculosis; experiment: Antimicrobial activity against Mycobacterium tuberculosis H37Rv at 30 uM incubation for 6 days by alamar blue assay; assay type: ADME; conditions: 144 h
[17] = tested on: Mycobacterium tuberculosis; conditions: 20 uM
[18] = tested on: Mycobacterium tuberculosis; experiment: Inhibition of Mycobacterium tuberculosis AAC(2')-Ic at 200 uM
[19] = tested on: Mycobacterium tuberculosis; experiment: Antimicrobial activity against Mycobacterium tuberculosis K204 at 37 uM incubation for 6 days by alamar blue assay; assay type: ADME; conditions: 144 h
[20] = tested on: Mycobacterium tuberculosis; experiment: Antimicrobial activity against Mycobacterium tuberculosis H37Rv at 37 uM incubation for 6 days by alamar blue assay; assay type: ADME; conditions: 144 h
[21] = tested on: Mycobacterium tuberculosis; experiment: Antimicrobial activity against Mycobacterium tuberculosis H37Rv at 70 uM incubation for 6 days by alamar blue assay; assay type: ADME; conditions: 144 h
[22] = tested on: Mycobacterium tuberculosis; experiment: Antimicrobial activity against Mycobacterium tuberculosis K204 at 70 uM incubation for 6 days by alamar blue assay; assay type: ADME; conditions: 144 h
[23] = tested on: Mycobacterium tuberculosis H37Rv; conditions: 70 uM
[24] = tested on: Mycobacterium tuberculosis; experiment: as §1, with “70” for “8”
[25] = tested on: Mycobacterium tuberculosis; experiment: Antimicrobial activity against Mycobacterium tuberculosis H37Rv at 23 uM incubation for 6 days by alamar blue assay; assay type: ADME; conditions: 144 h
[26] = tested on: Mycobacterium tuberculosis H37Rv; conditions: 23 uM
[27] = tested on: Mycobacterium tuberculosis; experiment: as §1, with “23” for “8”
[28] = tested on: Mycobacterium tuberculosis; experiment: Antimicrobial activity against Mycobacterium tuberculosis K204 at 23 uM incubation for 6 days by alamar blue assay; assay type: ADME; conditions: 144 h
[29] = tested on: Mycobacterium tuberculosis H37Rv
[30] = tested on: Mycobacterium tuberculosis; experiment: Antimicrobial activity against Mycobacterium tuberculosis H37Rv at […] incubation for 6 days by alamar blue assay; assay type: ADME; conditions: 144 h
[31] = tested on: Mycobacterium tuberculosis; experiment: Antimicrobial activity against Mycobacterium tuberculosis K204 at […] incubation for 6 days by alamar blue assay; assay type: ADME; conditions: 144 h
[32] = tested on: Mycobacterium tuberculosis; experiment: as §1, with “8 uM” left out
[33] = tested on: Mycobacterium tuberculosis; experiment: Antimicrobial activity against Mycobacterium tuberculosis H37Rv at 25 uM incubation for 6 days by alamar blue assay; assay type: ADME; conditions: 144 h
[34] = tested on: Mycobacterium tuberculosis H37Rv; conditions: 25 uM
[35] = tested on: Mycobacterium tuberculosis; experiment: as §1, with “25” for “8”
[36] = tested on: Mycobacterium tuberculosis; experiment: Antimicrobial activity against Mycobacterium tuberculosis K204 at 25 uM incubation for 6 days by alamar blue assay; assay type: ADME; conditions: 144 h
[37] = tested on: Mycobacterium tuberculosis H37Rv; remark: listed apart in the source
[38] = tested on: Mycobacterium tuberculosis; experiment: as §1, with “37” for “8”
[39] = tested on: Mycobacterium tuberculosis H37Rv; conditions: 37 uM

Row | Compound | MIC [9] | Activity [10] | MIC [11] | Activity [12] | also measured
1 | CN(c1ccc(Br)cc1)S(=O)(=O)c1ccc2[nH]c(=O)c(=O)[nH]c2c1 | – | – | – | – | MIC [1]: < 1.25 µg/mL; MIC [2]: 2.5 µg/mL; Activity [3]: Non-Toxic; Activity [4]: Non-Toxic
2 | CN(c1ccc(Cl)cc1)S(=O)(=O)c1ccc2[nH]c(=O)c(=O)[nH]c2c1 | – | – | – | – | MIC [5]: < 1.25 µg/mL; MIC [6]: 2.5 µg/mL; Activity [7]: Non-Toxic; Activity [8]: Non-Toxic
3 | CN(c1ccccc1)S(=O)(=O)c1ccc2[nH]c(=O)c(=O)[nH]c2c1 | < 1.25 µg/mL | Non-Toxic | 5 µg/mL | Non-Toxic | –
4 | CN(c1cccc(F)c1)S(=O)(=O)c1ccc2[nH]c(=O)c(=O)[nH]c2c1 | – | – | – | – | MIC [13]: 5 µg/mL; MIC [14]: < 1.25 µg/mL; Activity [15]: Non-Toxic; Activity [16]: Non-Toxic
5 | O=c1[nH]c2ccc(S(=O)(=O)Nc3ccccc3)cc2[nH]c1=O | < 1.25 µg/mL | Non-Toxic | 10 µg/mL | Non-Toxic | –
6 | CN(c1ccc2ccccc2c1)S(=O)(=O)c1ccc2[nH]c(=O)c(=O)[nH]c2c1 | < 1.25 µg/mL | Non-Toxic | < 1.25 µg/mL | Non-Toxic | –
7 | Cc1cc(NS(=O)(=O)c2ccc3[nH]c(=O)c(=O)[nH]c3c2)ccc1Br | – | – | – | – | fold change (FC) [17]: > 3
8 | COc1ccccc1N(C)S(=O)(=O)c1ccc2[nH]c(=O)c(=O)[nH]c2c1 | < 1.25 µg/mL | Non-Toxic | 10 µg/mL | Non-Toxic | –
9 | COc1cccc(N(C)S(=O)(=O)c2ccc3[nH]c(=O)c(=O)[nH]c3c2)c1 | < 1.25 µg/mL | Non-Toxic | < 1.25 µg/mL | Non-Toxic | inhibition [18]: 15%
10 | Cc1cccc(N(C)S(=O)(=O)c2ccc3[nH]c(=O)c(=O)[nH]c3c2)c1 | – | – | – | – | Activity [19]: Non-Toxic; Activity [20]: Non-Toxic
11 | COc1cc(N(C)S(=O)(=O)c2ccc3[nH]c(=O)c(=O)[nH]c3c2)cc2ccccc12 | < 1.25 µg/mL | Non-Toxic | 10 µg/mL | Non-Toxic | –
12 | COc1cc(OC)cc(N(C)S(=O)(=O)c2ccc3[nH]c(=O)c(=O)[nH]c3c2)c1 | < 1.25 µg/mL | Non-Toxic | 5 to 10 µg/mL | Non-Toxic | –
13 | CCCCc1cccc(N(C)S(=O)(=O)c2ccc3[nH]c(=O)c(=O)[nH]c3c2)c1 | – | – | – | – | Activity [21]: Non-Toxic; Activity [22]: Non-Toxic; MIC [23]: < 1.25 µg/mL; MIC [24]: 5 to 10 µg/mL
14 | CN(c1cccc(C(C)(C)C)c1)S(=O)(=O)c1ccc2[nH]c(=O)c(=O)[nH]c2c1 | < 1.25 µg/mL | Non-Toxic | 5 to 10 µg/mL | Non-Toxic | –
15 | CC(C)c1cccc(N(C)S(=O)(=O)c2ccc3[nH]c(=O)c(=O)[nH]c3c2)c1 | – | – | – | – | Activity [25]: Non-Toxic; MIC [26]: < 1.25 µg/mL; MIC [27]: 2.5 to 5 µg/mL; Activity [28]: Non-Toxic
16 | CC(C)c1ccc(NS(=O)(=O)c2ccc3[nH]c(=O)c(=O)[nH]c3c2)cc1 | < 1.25 µg/mL | Non-Toxic | 5 µg/mL | Non-Toxic | –
17 | CN(c1cccc(Br)c1)S(=O)(=O)c1ccc2[nH]c(=O)c(=O)[nH]c2c1 | – | – | – | – | MIC [29]: < 1.25 µg/mL; Activity [30]: Non-Toxic; Activity [31]: Non-Toxic; MIC [32]: 2.5 µg/mL
18 | O=c1[nH]c2ccc(S(=O)(=O)Nc3ccc4c(c3)OCCO4)cc2[nH]c1=O | – | – | – | – | fold change (FC) [17]: > 3
19 | CC(C)c1ccc(N(C)S(=O)(=O)c2ccc3[nH]c(=O)c(=O)[nH]c3c2)cc1 | – | – | – | – | Activity [33]: Non-Toxic; MIC [34]: < 1.25 µg/mL; MIC [35]: 2.5 to 5 µg/mL; Activity [36]: Non-Toxic
20 | CCc1cccc(N(C)S(=O)(=O)c2ccc3[nH]c(=O)c(=O)[nH]c3c2)c1 | – | – | – | – | MIC [37]: < 1.25 µg/mL; Activity [30]: Non-Toxic; Activity [31]: Non-Toxic; MIC [32]: 5 to 10 µg/mL
21 | Cc1cccc(N(C)S(=O)(=O)c2ccc3nc(O)c(O)nc3c2)c1 | – | – | – | – | MIC [38]: 2.5 to 5 µg/mL; MIC [39]: < 1.25 µg/mL
22 | O=c1[nH]c2ccc(S(=O)(=O)Nc3ccc(Br)cc3)cc2[nH]c1=O | < 1.25 µg/mL | Non-Toxic | 5 µg/mL | Non-Toxic | –
23 | O=c1[nH]c2ccc(S(=O)(=O)Nc3ccc(Cl)c(C(F)(F)F)c3)cc2[nH]c1=O | – | – | – | – | fold change (FC) [17]: > 3
